Assay results: patent publication US7223782B2, “Pyrazole-amides and -sulfonamides” (Icagen, Inc., priority 2001, dated 2007)
pIC50: −log10 of the molar value.

Biological target: T1, PN3 (Homo sapiens, UniProt Q9Y5Y9)
T1 construct: expressed in transfected cells
Assay: 14C Guanidinium Ion Influx Binding Assay (flux assay)
Assay type: cell-based
Conditions: activity towards PN3, PN3 stably expressed in a host cell line, deltamethrine 10 μM
Procedure: ^14C Guanidinium Ion Influx Binding Assay
PN3 stably expressed in a host cell line were maintained in DMEM with 5% fetal bovine serum and 300 μg/ml G-418. The cells were subcultured and grown to confluence in 96-well plates 24–48 h before each experiment. After the growth medium was removed, the cells were washed with warm buffer (25 mM Hepes-Tris, 135 mM choline chloride, 5.4 mM potassium chloride, 0.98 mM magnesium sulfate, 5.5 mM glucose, and 1 mg/ml BSA, pH 7.4) and incubated in buffer on a 36° C. slide warmer for approximately 10 minutes. Various concentrations of the test compounds or standard sodium channel blockers (10 μM) and then deltamethrine (10 μM) were added to each well. After the cells were exposed to deltamethrine for 5 minutes, 5 μM of ^14C-guanidinium was added, incubated with the radioligand (30–60 min), washed with ice-cold buffer, and dissolved in 0.1N sodium hydroxide. The radioactivity and the protein concentration of each cell lysate were determined by liquid scintillation counting and the protein assay using Pierce BCA reagent.

T1 sequence (Q9Y5Y9 whole entry, species assumed): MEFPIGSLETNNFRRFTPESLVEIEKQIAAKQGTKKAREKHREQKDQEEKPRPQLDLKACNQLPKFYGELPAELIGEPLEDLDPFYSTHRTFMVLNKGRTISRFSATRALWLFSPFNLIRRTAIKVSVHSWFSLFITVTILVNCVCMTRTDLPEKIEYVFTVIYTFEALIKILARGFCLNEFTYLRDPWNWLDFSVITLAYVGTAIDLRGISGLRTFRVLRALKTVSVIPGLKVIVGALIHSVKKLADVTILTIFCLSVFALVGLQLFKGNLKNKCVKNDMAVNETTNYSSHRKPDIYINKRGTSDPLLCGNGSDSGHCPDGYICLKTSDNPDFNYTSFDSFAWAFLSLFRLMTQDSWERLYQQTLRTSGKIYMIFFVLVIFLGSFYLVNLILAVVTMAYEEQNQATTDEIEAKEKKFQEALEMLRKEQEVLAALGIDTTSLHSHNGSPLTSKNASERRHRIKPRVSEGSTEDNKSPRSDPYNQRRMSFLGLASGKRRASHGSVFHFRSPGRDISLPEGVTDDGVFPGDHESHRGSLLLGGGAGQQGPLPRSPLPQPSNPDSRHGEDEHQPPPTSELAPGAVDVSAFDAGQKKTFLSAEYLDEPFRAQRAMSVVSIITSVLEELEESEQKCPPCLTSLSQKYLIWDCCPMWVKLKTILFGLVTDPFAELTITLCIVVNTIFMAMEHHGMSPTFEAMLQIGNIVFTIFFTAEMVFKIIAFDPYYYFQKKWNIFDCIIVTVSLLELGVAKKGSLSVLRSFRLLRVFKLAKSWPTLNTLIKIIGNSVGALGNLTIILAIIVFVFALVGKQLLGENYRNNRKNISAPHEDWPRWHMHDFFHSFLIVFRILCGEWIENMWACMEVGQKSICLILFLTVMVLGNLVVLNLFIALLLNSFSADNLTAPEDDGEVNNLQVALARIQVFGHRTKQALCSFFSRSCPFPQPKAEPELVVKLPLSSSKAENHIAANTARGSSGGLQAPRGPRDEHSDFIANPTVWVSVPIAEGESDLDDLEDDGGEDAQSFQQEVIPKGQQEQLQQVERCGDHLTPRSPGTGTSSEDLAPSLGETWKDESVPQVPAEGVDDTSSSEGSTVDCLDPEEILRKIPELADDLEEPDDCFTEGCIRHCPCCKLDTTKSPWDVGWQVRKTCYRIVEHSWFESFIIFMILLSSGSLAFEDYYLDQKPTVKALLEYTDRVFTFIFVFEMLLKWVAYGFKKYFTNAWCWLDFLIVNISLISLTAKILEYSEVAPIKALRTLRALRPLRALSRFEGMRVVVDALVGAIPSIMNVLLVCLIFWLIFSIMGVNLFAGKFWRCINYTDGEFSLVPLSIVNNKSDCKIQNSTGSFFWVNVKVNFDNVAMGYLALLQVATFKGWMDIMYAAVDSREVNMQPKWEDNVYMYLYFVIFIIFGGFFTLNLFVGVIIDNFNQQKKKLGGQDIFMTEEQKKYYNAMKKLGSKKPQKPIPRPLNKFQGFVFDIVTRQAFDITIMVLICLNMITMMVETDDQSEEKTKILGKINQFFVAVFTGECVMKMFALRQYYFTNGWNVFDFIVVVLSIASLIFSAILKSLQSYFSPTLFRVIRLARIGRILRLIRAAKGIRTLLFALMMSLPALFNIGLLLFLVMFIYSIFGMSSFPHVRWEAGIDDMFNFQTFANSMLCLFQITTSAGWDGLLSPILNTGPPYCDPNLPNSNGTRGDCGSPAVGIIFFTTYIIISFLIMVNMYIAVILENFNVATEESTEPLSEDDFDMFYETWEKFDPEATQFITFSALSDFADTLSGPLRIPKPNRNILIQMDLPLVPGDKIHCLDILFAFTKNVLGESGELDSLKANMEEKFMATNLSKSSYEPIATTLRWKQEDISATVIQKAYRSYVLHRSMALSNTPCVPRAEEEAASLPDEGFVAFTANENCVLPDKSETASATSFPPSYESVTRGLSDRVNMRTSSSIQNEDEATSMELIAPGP

| SMILES | pIC50 |
| --- | --- |
| O=C(NCCc1cccc(Cl)c1)c1cnn(-c2ccc(F)cc2)c1C(F)(F)F [Compound 480, 1-(4-Fluoro-phenyl)-5-trifluoromethyl-1H-pyrazole-4-carboxylic acid [2-(3-chloro-phenyl)-ethyl]-amide] | 5.40 to 7.00 |
| CN(C)CCNS(=O)(=O)c1cccc(NC(=O)c2cnn(-c3ccc(Cl)cc3)c2C(F)(F)F)c1 [Compound 1175, 1-(4-Chloro-phenyl)-5-trifluoromethyl-1H-pyrazole-4-carboxylic acid [3-(2-dimethylamino-ethylsulfamoyl)-phenyl]-amide] | 5.00 to 5.39 |
| CCCc1c(C(=O)NC(Cc2ccccc2)C(=O)OC)cnn1-c1ccccc1 (stereo not shown) [Compound 39, 3-Phenyl-2-[(1-phenyl-5-propyl-1H-pyrazole-4-carbonyl)-amino]-propionic acid methyl ester] | 5.40 to 7.00 |
| NS(=O)(=O)c1cccc(NC(=O)c2cnn(-c3ccc(Cl)cc3)c2C(F)(F)F)c1 [Compound 1054, 1-(4-Chloro-phenyl)-5-trifluoromethyl-1H-pyrazole-4-carboxylic acid (3-sulfamoyl-phenyl)-amide] | 5.40 to 7.00 |
| O=C(NCCc1ccc(F)cc1)c1cnn(-c2ccc(Cl)cc2)c1C(F)(F)F [Compound 411, 1-(4-Chloro-phenyl)-5-trifluoromethyl-1H-pyrazole-4-carboxylic acid [2-(4-fluoro-phenyl)-ethyl]-amide] | 5.40 to 7.00 |
| O=C(NCCc1cccc(Cl)c1)c1cnn(-c2cccc(Cl)c2)c1 [Compound 449, 1-(3-Chloro-phenyl)-1H-pyrazole-4-carboxylic acid [2-(3-chloro-phenyl)-ethyl]-amide] | 5.40 to 7.00 |
| O=C(Nc1ccncc1)c1cnn(-c2ccc(Cl)cc2)c1C(F)(F)F [Compound 23, 1-(4-Chloro-phenyl)-5-trifluoromethyl-1H-pyrazole-4-carboxylic acid pyridin-4-ylamide] | 5.00 to 5.39 |
| O=C(NCCc1cccc(F)c1)c1cnn(-c2ccc(Cl)cc2)c1C(F)(F)F [Compound 323, 1-(4-Chloro-phenyl)-5-trifluoromethyl-1H-pyrazole-4-carboxylic acid [2-(3-fluoro-phenyl)-ethyl]-amide] | 5.40 to 7.00 |

Now from value to compound:

| pIC50 | SMILES |
| --- | --- |
| 5.40 to 7.00 | CS(=O)(=O)c1cccc(NC(=O)c2cnn(-c3ccc(Cl)cc3)c2C(F)(F)F)c1 [Compound 154, 1-(4-Chloro-phenyl)-5-trifluoromethyl-1H-pyrazole-4-carboxylic acid (3-methanesulfonyl-phenyl)-amide] |
| 5.00 to 5.39 | O=C(NCc1ccc(C(F)(F)F)cc1)c1cnn(-c2ccccc2)c1C(F)(F)F [Compound 444, 1-Phenyl-5-trifluoromethyl-1H-pyrazole-4-carboxylic acid 4-trifluoromethyl-benzylamide] |
| 4.52 to 5.00 | O=C(NCCc1ccccc1)c1cnn(-c2ccc(Cl)cc2)c1C(F)(F)F [Compound 114, 1-(4-Chloro-phenyl)-5-trifluoromethyl-1H-pyrazole-4-carboxylic acid phenethyl-amide] |
| 5.40 to 7.00 | Cn1nc(-c2ccccc2)cc1NC(=O)c1cnn(-c2ccc(Cl)cc2)c1C(F)(F)F [Compound 20, 1-(4-Chloro-phenyl)-5-trifluoromethyl-1H-pyrazole-4-carboxylic acid (2-methyl-5-phenyl-2H-pyrazol-3-yl)-amide] |
| 5.40 to 7.00 | O=C(NCCc1ccccc1Cl)c1cnn(-c2ccc(Cl)cc2)c1C(F)(F)F [Compound 414, 1-(4-Chloro-phenyl)-5-trifluoromethyl-1H-pyrazole-4-carboxylic acid [2-(2-chloro-phenyl)-ethyl]-amide] |
